Assay results: US7547440B2, “T-cell epitope peptides” (Meiji Dairies Corporation, priority 1996, dated 2009)

Test system: T-cell line stimulated by Cha o 2 from patients with Japanese cypress pollinosis
Assay: Growth response ([3H]thymidine uptake) of Cha o 2-stimulated T-cell lines to overlapping peptides
Assay type: cell-based, human
Conditions: Cha o 2 overlapping peptides, final concentration 1 μM; T-cell lines from 20 patients; FIG. 5, FIG. 8
Description: To obtain the T-cell epitope peptides of the present invention, overlapping peptides that cover the entire primary structures of Cha o 1 and Cha o 2 were synthesized; each peptide consists of the adequate number of amino acid residues (12 to 20 residues). The peptide of the present invention stimulates and/or suppresses the activity of T cells derived from patients with pollinosis caused by tree pollens in springtime. In other words, the peptide of the present invention can induce proliferation of T cells or responses of T cells such as secretion of lymphokines, and/or can induce T-cell anergy (non-responsiveness). T-cell epitope sites on the allergen molecules can be identified using T-cell growth as an index in accordance with the method described in JP-A-Hei 8-47392. In particular, T-cell lines or T-cell clones, which are specifically reactive with Cha o 1 and Cha o 2, are established for every patient from peripheral lymphocytes of a patient with Japanese cypress pollinosis. The T-cell lines or T-cell clones are cultured in the presence of each peptide of the overlapping peptides. The epitope sites are identified by measuring the proliferation of T cells in the presence of the peptide (e.g., uptake of [^3H]thymidine into the cells) and calculating a stimulation index. […] Based on the data obtained thus, a mean stimulation index for each peptide is calculated for each patient group. […]

“2-14: overlapping peptide of Japanese cypress pollen allergen Cha o 2, 20 residues (ARWKNSKIWLQFAQLTDFNL)” was tested. Which “T-cell stimulating activity (contains at least one T-cell epitope)” value did it give?
Its value is “possess a T-cell stimulating activity”.
